{"source": "ChEMBL document CHEMBL1159075", "about": "“The chemical synthesis and antibiotic activity of a diverse library of 2-aminobenzimidazole small molecules against MRSA and multidrug-resistant A. baumannii” (Bioorg Med Chem, 2010)", "key": {"[1]": {"system": "Staphylococcus aureus", "experiment": "Antibacterial activity against methicillin-resistant Staphylococcus aureus BAA-44 after 16 to 20 hrs by microdilution susceptibility test", "type": "functional", "settings": "Staphylococcus aureus, BAA-44"}, "[2]": {"system": "Acinetobacter baumannii", "experiment": "Antibacterial activity against Acinetobacter baumannii UH8407 after 16 to 20 hrs by microdilution susceptibility test", "type": "functional"}, "[3]": {"system": "Acinetobacter baumannii", "experiment": "Antibacterial activity against Acinetobacter baumannii AB0043 after 16 to 20 hrs by microdilution susceptibility test", "type": "functional"}, "[4]": {"system": "Acinetobacter baumannii", "experiment": "Antibacterial activity against Acinetobacter baumannii ATCC 19606 after 16 to 20 hrs by microdilution susceptibility test", "type": "functional", "settings": "ATCC 19606 = CIP 70.34 = JCM 6841"}, "[5]": {"system": "Acinetobacter baumannii", "experiment": "Antibacterial activity against multidrug-resistant Acinetobacter baumannii BAA-1605 after 16 to 20 hrs by microdilution susceptibility test", "type": "functional"}, "[6]": {"system": "Staphylococcus aureus", "experiment": "Antibacterial activity against Staphylococcus aureus ATCC 29213 after 16 to 20 hrs by microdilution susceptibility test", "type": "functional"}, "[7]": {"system": "Staphylococcus aureus", "experiment": "Antibacterial activity against Staphylococcus aureus ATCC 29740 after 16 to 20 hrs by microdilution susceptibility test", "type": "functional"}, "[8]": {"system": "Acinetobacter baumannii", "experiment": "Antibacterial activity against Acinetobacter baumannii 3304 after 16 to 20 hrs by microdilution susceptibility test", "type": "functional"}, "[9]": {"experiment": "Toxicity in defibrinated sheep RBC assessed as hemolysis at 25 uM by UV spectrometry", "type": "cell-based, Ovis aries, Erythrocyte", "settings": "defibrinated sheep red blood cells, read-out: Activity"}, "[10]": {"system": "Staphylococcus aureus", "experiment": "Antibacterial activity against Staphylococcus aureus ATCC 25923 after 16 to 20 hrs by microdilution susceptibility test", "type": "functional"}}, "data": [{"smiles": "CCCCCc1ccc(-c2c[nH]c(N)n2)cc1", "values": [{"measurement": "MIC", "setting": "[1]", "result": 12.5, "unit": "µM"}]}, {"smiles": "[N-]=[N+]=NCCc1ccsc1", "values": [{"measurement": "MIC", "setting": "[2]", "result": "> 400", "unit": "µM"}, {"measurement": "MIC", "setting": "[3]", "result": "> 400", "unit": "µM"}, {"measurement": "MIC", "setting": "[4]", "result": "> 400", "unit": "µM"}, {"measurement": "MIC", "setting": "[5]", "result": "> 400", "unit": "µM"}]}, {"smiles": "CCCCCCS(=O)(=O)Nc1ccc2[nH]c(N)nc2c1", "values": [{"measurement": "MIC", "setting": "[1]", "result": 100, "unit": "µM"}, {"measurement": "MIC", "setting": "[6]", "result": 100, "unit": "µM"}, {"measurement": "MIC", "setting": "[7]", "result": 100, "unit": "µM"}]}, {"smiles": "CCCCCCC(=O)Nc1ccc2[nH]c(N)nc2c1", "values": [{"measurement": "MIC", "setting": "[2]", "result": "> 400", "unit": "µM"}, {"measurement": "MIC", "setting": "[3]", "result": 400, "unit": "µM"}, {"measurement": "MIC", "setting": "[8]", "result": "> 400", "unit": "µM"}, {"measurement": "MIC", "setting": "[4]", "result": "> 400", "unit": "µM"}, {"measurement": "MIC", "setting": "[5]", "result": "> 400", "unit": "µM"}]}, {"smiles": "COc1cccc(OC)c1C(=O)N[C@@H]1C(=O)N2[C@@H]1SC(C)(C)[C@@H]2C(=O)O", "note": "[METHICILLIN]", "values": [{"measurement": "MIC", "setting": "[1]", "result": "> 400", "unit": "µM"}, {"measurement": "MIC", "setting": "[6]", "result": 3.13, "unit": "µM"}]}, {"smiles": "CN[C@@H]1[C@H](O[C@H]2[C@H](O[C@H]3[C@H](O)[C@@H](O)[C@H](N=C(N)N)[C@@H](O)[C@@H]3N=C(N)N)O[C@@H](C)[C@]2(O)C=O)O[C@@H](CO)[C@H](O)[C@H]1O", "note": "[STREPTOMYCIN]", "values": [{"measurement": "MIC", "setting": "[1]", "result": "> 200", "unit": "µM"}, {"measurement": "MIC", "setting": "[6]", "result": 1.56, "unit": "µM"}, {"measurement": "MIC", "setting": "[7]", "result": 0.391, "unit": "µM"}]}, {"smiles": "CCCCCc1ccc(C(=O)Nc2ccccc2)cc1", "values": [{"measurement": "MIC", "setting": "[1]", "result": "> 400", "unit": "µM"}, {"measurement": "MIC", "setting": "[4]", "result": "> 400", "unit": "µM"}]}, {"smiles": "Nc1nc2cc(NC(=O)c3ccccc3)ccc2[nH]1", "values": [{"measurement": "hemolysis at 25 µM", "setting": "[9]", "result": "< 1", "unit": "%"}]}, {"smiles": "CCCCCCCc1ccc(C(=O)Nc2ccc3[nH]c(N)nc3c2)cc1", "values": [{"measurement": "MIC", "setting": "[1]", "result": 25, "unit": "µM"}, {"measurement": "MIC", "setting": "[3]", "result": 12.5, "unit": "µM"}, {"measurement": "MIC", "setting": "[6]", "result": 25, "unit": "µM"}, {"measurement": "MIC", "setting": "[8]", "result": 50, "unit": "µM"}, {"measurement": "MIC", "setting": "[4]", "result": 50, "unit": "µM"}, {"measurement": "MIC", "setting": "[10]", "result": 50, "unit": "µM"}, {"measurement": "MIC", "setting": "[7]", "result": 12.5, "unit": "µM"}]}, {"smiles": "NC[C@H]1O[C@H](O[C@H]2[C@H](O)[C@@H](O[C@H]3O[C@H](CO)[C@@H](O)[C@H](N)[C@H]3O)[C@H](N)C[C@@H]2N)[C@H](N)C[C@@H]1O", "note": "[TOBRAMYCIN]", "values": [{"measurement": "MIC", "setting": "[2]", "result": 200, "unit": "µM"}, {"measurement": "MIC", "setting": "[3]", "result": 200, "unit": "µM"}, {"measurement": "MIC", "setting": "[8]", "result": "> 400", "unit": "µM"}, {"measurement": "MIC", "setting": "[4]", "result": 25, "unit": "µM"}, {"measurement": "MIC", "setting": "[5]", "result": 6.25, "unit": "µM"}]}, {"smiles": "CCCCCCCCCCc1cn(-c2ccc(C(=O)Nc3ccc4[nH]c(N)nc4c3)cc2)nn1", "values": [{"measurement": "MIC", "setting": "[1]", "result": "> 400", "unit": "µM"}]}, {"smiles": "CCCCc1ccc(C(=O)Nc2ccc3[nH]c(N)nc3c2)cc1", "values": [{"measurement": "MIC", "setting": "[1]", "result": 25, "unit": "µM"}, {"measurement": "MIC", "setting": "[2]", "result": 50, "unit": "µM"}, {"measurement": "MIC", "setting": "[3]", "result": 25, "unit": "µM"}, {"measurement": "MIC", "setting": "[6]", "result": 25, "unit": "µM"}, {"measurement": "MIC", "setting": "[8]", "result": 100, "unit": "µM"}, {"measurement": "MIC", "setting": "[4]", "result": 50, "unit": "µM"}, {"measurement": "MIC", "setting": "[10]", "result": 25, "unit": "µM"}, {"measurement": "MIC", "setting": "[7]", "result": 12.5, "unit": "µM"}, {"measurement": "MIC", "setting": "[5]", "result": 25, "unit": "µM"}]}, {"smiles": "O=C(O)c1cn(C2CC2)c2cc(N3CCNCC3)c(F)cc2c1=O", "note": "[CIPROFLOXACIN]", "values": [{"measurement": "MIC", "setting": "[1]", "result": 12.5, "unit": "µM"}, {"measurement": "MIC", "setting": "[6]", "result": 0.391, "unit": "µM"}, {"measurement": "MIC", "setting": "[7]", "result": 0.391, "unit": "µM"}]}, {"smiles": "CC(C)(C)c1ccc(C(=O)Nc2ccc3[nH]c(N)nc3c2)cc1", "values": [{"measurement": "MIC", "setting": "[1]", "result": 50, "unit": "µM"}, {"measurement": "MIC", "setting": "[2]", "result": 100, "unit": "µM"}, {"measurement": "MIC", "setting": "[3]", "result": 50, "unit": "µM"}, {"measurement": "MIC", "setting": "[6]", "result": 50, "unit": "µM"}, {"measurement": "MIC", "setting": "[8]", "result": 100, "unit": "µM"}, {"measurement": "MIC", "setting": "[4]", "result": 100, "unit": "µM"}, {"measurement": "MIC", "setting": "[10]", "result": 100, "unit": "µM"}, {"measurement": "MIC", "setting": "[7]", "result": 50, "unit": "µM"}, {"measurement": "MIC", "setting": "[5]", "result": 100, "unit": "µM"}]}]}
